The term IC50 denotes the concentration that gives 50% inhibition.

The source of these data is patent publication US10112955B2, “Isoindoline, azaisoindoline, dihydroindenone and dihydroazaindenone inhibitors of Mnk1 and Mnk2” (eFFECTOR THERAPEUTICS, INC., priority 2015, dated 2018).

Structures can show the parent of a compound that is named as a salt. A value given as a limit tells only on which side of the number the result lay.

The test system of the assay is Phosphorylated eIF4E. Kind of assay: peIF4E Signaling Cellular Assay (CisBio peIF4E HTRF). The assay is classed as cell-based. The note with it: cells incubated with compound for 2 hrs at 37° C., 12-point curve. On the procedure:
Phosphorylated eIF4E is assayed using the CisBio peIF4E HTRF® assay kit (CisBio, catalogue No. 64EF4PEG). Cells are plated in 96-well tissue-culture treated plate in appropriate growth medium (90 μL). Compounds (10×) are diluted using 3-fold serial dilutions in cell culture medium and added to cells. Plates are incubated for 2 hrs at 37° C. The cell supernatant is carefully removed either by aspirating supernatant or by flicking the plate. Immediately 50 μL of supplemented lysis buffer (1×) is added and incubated for at least 30 minutes at room temperature under shaking. After homogenization by pipeting up and down, 16 μL of cell lysate is transferred from the 96-well cell-culture plate to a 384-well small volume white plate. 4 μL of premixed antibody solutions (vol/vol) is prepared in the detection buffer and added. The plate is covered with a plate sealer and incubated overnight at room temperature. The fluorescence emissions at two different wavelengths are read (665 nm and 620 nm) on a Wallac Victor2. Emission ratios are converted into percent inhibitions and imported into GraphPad Prism software. […] IC50 values are determined using a nonlinear regression model available in GraphPad Prism 5.
(Time-resolved FRET reads energy transfer from a long-lived donor to a nearby acceptor.)
Regarding `COc1cncnc1Nc1cc(C)c2c(c1)C1(CCN(C)CC1)NC2=O` [Cpd. No. 60, 6-((5-methoxypyrimidin-4-yl)amino)-1′,4-dimethylspiro [isoindoline-1,4′-piperidin]-3-one], the IC50 is 50 to 1000 nM.
As for `Cc1cc(Nc2ncncc2C#N)cc2c1C(=O)NC21CCN(C)CC1` [Cpd. No. 61, 4-((1′,4-dimethyl-3-oxospiro[isoindoline-1,4′-piperidin]-6-yl)amino)pyrimidine-5-carbonitrile trifluoroacetic acid salt], the figure is 1000 to 100000 nM.
As for `Cc1cc(Nc2ncnc(N)c2C)cc2c1C(=O)NC21CCN(C)CC1` [Cpd. No. 62, 6-((6-amino-5-methylpyrimidin-4-yl)amino)-1′,4-dimethylspiro[isoindoline-1,4′-piperidin]-3-one], the figure is 1000 to 100000 nM; as for `Cc1cc(Nc2ncncc2C#N)cc2c1C(=O)NC21CCCCC1` [Cpd. No. 63, 4-((4′-methyl-3′-oxospiro[cyclohexane-1,1′-isoindolin]-6′-yl)amino)pyrimidine-5-carbonitrile], 50 to 1000 nM; as for `Cc1cc(Nc2ncncc2C(N)=O)cc2c1C(=O)NC21CCCCC1` [Cpd. No. 64, 4-((4′-methyl-3′-oxospiro[cyclohexane-1,1′-isoindolin]-6′-yl)amino)pyrimidine-5-carboxamide], 50 to 1000 nM.
To `COc1cncnc1Nc1cc(C)c2c(c1)C1(CCN(CC(F)F)CC1)NC2=O` [Cpd. No. 65, 1′-(2,2-difluoroethyl)-6-((5-methoxypyrimidin-4-yl)amino)-4-methylspiro[isoindoline-1,4′-piperidin]-3-one] belongs 50 to 1000 nM; to `Cc1cc(Nc2ncnc(N)c2C)cc2c1C(=O)NC21CCN(CC(F)F)CC1` [Cpd. No. 66, 6-((6-amino-5-methylpyrimidin-4-yl)amino)-1′-(2,2-difluoroethyl)-4-methylspiro[isoindoline-1,4′-piperidin]-3-one], 50 to 1000 nM; to `Cc1cc(Nc2ncncc2C#N)cc2c1C(=O)NC21CCN(CC(F)F)CC1` [Cpd. No. 67, 4-((1′-(2,2-difluoroethyl)-4-methyl-3-oxospiro[isoindoline-1,4′-piperidin]-6-yl)amino)pyrimidine-5-carbonitrile], 1000 to 100000 nM.
For the compound `COc1c(N)ncnc1Nc1cc(C)c2c(c1)C1(CCN(C)CC1)NC2=O` [Cpd. No. 68, 6-((6-amino-5-methoxypyrimidin-4-yl)amino)-1′,4-dimethylspiro[isoindoline-1,4′-piperidin]-3-one], the half-inhibitory concentration (IC50) lay within 50 to 1000 nM.
To `COc1c(N)ncnc1Nc1cc(C)c2c(c1)C1(CCN(CC(F)F)CC1)NC2=O` [Cpd. No. 69, 6-((6-amino-5-methoxypyrimidin-4-yl)amino)-1′-(2,2-difluoroethyl)-4-methylspiro[isoindoline-1,4′-piperidin]-3-one] belongs 50 to 1000 nM; to `Cc1cc(Nc2cc(N)ncn2)nc2c1C(=O)NC21CCCCC1` [Cpd. No. 70, 2′-((6-aminopyrimidin-4-yl)amino)-4′-methylspiro[cyclohexane-1,7′-pyrrolo[3,4-b]pyridin]-5′(6′H)-one], under 50 nM.
For `Cc1cc(Nc2ncnc(N)c2Cl)nc2c1C(=O)NC21CCCCC1` [Cpd. No. 73, 2′-((6-amino-5-chloropyrimidin-4-yl)amino)-4′-methylspiro[cyclohexane-1,7′-pyrrolo[3,4-b]pyridin]-5′(6′H)-one], the IC50 was under 50 nM.
To `Cc1cc(Nc2ncnc(N)c2C)cc2c1C(=O)NC21CCOCC1` [Cpd. No. 74, 6-((6-amino-5-methylpyrimidin-4-yl)amino)-4-methyl-2′,3′,5′,6′-tetrahydrospiro[isoindoline-1,4′-pyran]-3-one] belongs 50 to 1000 nM.
As for `Cc1cc(Nc2ncnc3[nH]ccc23)cc2c1C(=O)NC21CCCCC1` [Cpd. No. 75, 6′-((7H-pyrrolo[2,3-d]pyrimidin-4-yl)amino)-4′-methylspiro[cyclohexane-1,1′-isoindolin]-3′-one], the figure is under 50 nM.
